“Also recorded” adds a separate entry of the source. Read-outs that look alike come from different tables or passages of the source.
What was measured:
[1] = tested on: CIGR1 gene and CIGR2 gene; assay: Induction of CIGR1 and CIGR2 gene expression by gibberellin in cultured rice cells (Northern blot hybridization); assay type: cell-based, rice (Oryza sativa cv. Nipponbare); conditions: for induction of CIGR1 and CIGR2 gene expression by gibberellin species: cultured rice cells treated for ten minutes
Protocol: (§1) (1) Rice cultured cells: The cultured cells of rice were induced from germinating rice seeds (Oryza sativa cv. Nipponbare) on an N6 agar plate containing 1 ppm 2,4-D (2,4-dichlorophenoxyacetic acid). The cells were successively cultured in liquid N6 medium as follows: Once a week, cells of about 1 ml in volume were transferred to 150 ml of N6 medium. Every two weeks, cell clusters were passed through a 20-mesh metal screen to reduce their size. Cells which had been transferred to 30 ml of medium with no screen treatment, and then shake-cultured for four to six days, were used for extraction of RNA for Northern blotting.
(§2) (2) RNA extraction: The extraction of total RNA from cultured cells and green leaves of rice was carried out according to the phenol-SDS method. A Polytron homogenizer was used to homogenize living tissue in the presence of about tenfold or more volume to tissue-volume of phenol (about 90% saturated with water), and a volume of buffer solution (50 mM Tris-HCl pH 9.0, 1% SDS, 50 mM NaCl) equal to this phenol volume. The aqueous phase obtained by centrifugation was then repeatedly extracted with phenol. Total nucleic acid was precipitated by adding 0.6 volume of isopropanol to the extract and stirring the mixture. After dissolving the precipitate in water, a 0.25 volume of 10M LiCl was added, and the mixture was cooled on ice. High molecular weight RNA was collected by centrifugation, washed with 70% ethanol, and then dissolved in a small volume of water to be used as an RNA sample.
[…] Gibberellin (GA3 dissolved in ethanol) was added to make up each final concentration, cells were cultured with shaking for predetermined periods, and then used for RNA extraction. Nipponbare plants grown for three weeks after seeding were sprayed with gibberellin. The third and fourth leaves were collected at certain intervals, and total RNA was extracted. Elicitor treatment was carried out by directly adding aqueous elicitor solution to cultured cells of rice.
(4) Hybridization: RNA for Northern hybridization was denatured using the glyoxal method. 2.7 μl of glyoxal (final concentration, 1M), 1.6 μl of sodium phosphate (pH 7.0, final concentration, 10 mM), and 8 μl of dimethylsulfoxide (final concentration, 50%) were added to 10 μg of total RNA (3.7 μl). The mixture was kept at 50° C. for one hour and then subjected to electrophoresis in 1.4% agarose (10 mM sodium phosphate, pH 7.0). After electrophoresis, RNA was blotted onto a nylon membrane (Biodyne A). The RNA was fixed onto the membrane by treatment for two hours at 80° C. Hybridization was carried out in a mixture of 50% formamide, 0.1% SDS, 0.1 mg/ml salmon sperm DNA, 5×SSPE (0.9 M NaCl, 50 mM sodium phosphate, 5 mM EDTA, pH 7.4), and 5× Denhardt's solution (0.1% bovine serum albumin, 0.1% Ficoll, 0.1% polyvinylpyrrolidone) at 42° C. for one day. The membrane was then washed with 0.1×SSC (15 mM NaCl, 1.5 mM sodium citrate) three times for five minutes each time at room temperature, and twice for 30 minutes each time at 65° C., and then exposed on x-ray film.

[2] = tested on: CHRC, a carotenoid-associated protein in the chromoplasts of cucumber petals; conditions: cited from earlier work
[3] = tested on: CIGR1 gene and CIGR2 gene; assay: Expression of CIGR1 and CIGR2 genes in green leaves of rice after GA3 spraying; assay type: in vivo, rice (Nipponbare); conditions: third and fourth leaves, three weeks after seeding, sprayed with GA3 (50 μM)
Protocol: as §2
(§3) (3) A method for gibberellin treatment of cultured cells and green leaves: The cultured cells were pre-washed several times with 2,4-D-free N6 medium, and then suspended in the same medium and shaken for two hours at 25° C. […]
In the presence of auxins, cultured plant cells are thought to be in an undifferentiated state. […] Thus, the responses of these two genes to gibberellin were analyzed in the green leaves of rice. […]

[4] = tested on: CIGR1 gene and CIGR2 gene; assay: Effect of protein kinase/phosphatase inhibitors on chitin heptamer induction of CIGR1 and CIGR2 genes in cultured rice cells; assay type: cell-based; conditions: inhibitor added ten minutes before treatment; okadaic acid 1 μM, lavendustin A 30 μM, K-252a 20 μM
Protocol: (§4) FIG. 11 depicts photographs representing the effects of protein kinase inhibitors on elicitor response and gibberellin response. The following compounds were added ten minutes before treatment with chitin heptamer (GN7) or gibberellin (GA3). (A): the positive elicitor response control; (B) : okadaic acid (1 μM); (C) : lavendustin A (30 μM); (D) : K-252a (20 μM).
as §1, §2, §3

[5] = tested on: elicitor-responsive genes; conditions: K-252a pretreatment; cited from earlier work
[6] = tested on: α-amylase; conditions: aleurone layer of wheat, cited from earlier work
[7] = tested on: CIGR1 gene and CIGR2 gene; assay: Effect of protein kinase/phosphatase inhibitors on GA3 induction of CIGR1 and CIGR2 genes in cultured rice cells; assay type: cell-based; conditions: inhibitor added ten minutes before treatment; okadaic acid 1 μM, lavendustin A 30 μM, K-252a 20 μM
Protocol: as §4, §1, §2, §3

[8] = tested on: CIGR1 gene and CIGR2 gene; assay: Elicitor (chitin/chitosan oligomer) induction of CIGR1 and CIGR2 gene expression in cultured rice cells (Northern blot hybridization); assay type: cell-based, rice (Oryza sativa cv. Nipponbare)
Protocol: as §1, §2
(3) A method for gibberellin treatment of cultured cells and green leaves: The cultured cells were pre-washed several times with 2,4-D-free N6 medium, and then suspended in the same medium and shaken for two hours at 25° C. Gibberellin (GA3 dissolved in ethanol) was added to make up each final concentration, cells were cultured with shaking for predetermined periods, and then used for RNA extraction. Nipponbare plants grown for three weeks after seeding were sprayed with gibberellin. The third and fourth leaves were collected at certain intervals, and total RNA was extracted. […]

[9] = ten minutes of GA3 treatment, 2,4-D-free medium

C=C1C[C@]23C[C@@]1(O)CC[C@H]2[C@@]12CC[C@H](O)[C@@](C)(C(=O)O1)[C@H]2[C@@H]3C(=O)O [GA1]
induction of CIGR1 and CIGR2 gene expression by gibberellin species [1]: induced the expression of both genes

C=C1C[C@]23C[C@@]1(O)CC[C@H]2[C@@]12C=C[C@H](O)[C@@](C)(C(=O)O1)[C@H]2[C@@H]3C(=O)O [GA3]
GA3 concentration required for induction of CHRC [2]: at least 10^−7 M | GA3 concentration up to which CHRC expression level increased approximately linearly [2]: up to 10^−4 M | expression of CIGR1 and CIGR2 genes over time after GA3 treatment ([1]; cells pre-washed with 2,4-D-free medium, two hours of pre-culture in the same medium): Transient expression with a maximum at ten minutes after treatment | induction of CIGR1 and CIGR2 gene expression by gibberellin species [1]: induced the expression of both genes | change in gene expression (CIGR1, CIGR2) after GA3 treatment ([1]; suspension-cultured cells in medium comprising 2,4-D, observed for three hours after treatment): no significant change in expression amount was found; also recorded: No change in gene expression was detected | GA3 concentration at which induction of expression of both genes began to appear [1, 9]: 10^−6 M | GA3 concentration at which induction reached near saturation [1, 9]: ~10^−4 M | time of maximum transient expression of both genes after spraying [3]: 30 min

C=C1C[C@]23C[C@H]1CC[C@H]2[C@@]12CC[C@H](O)[C@@](C)(C(=O)O1)[C@H]2[C@@H]3C(=O)O [GA4]
induction of CIGR1 and CIGR2 gene expression by gibberellin species [1]: induced the expression of both genes

C=C1C[C@]23C[C@H]1CC[C@H]2[C@]1(C(=O)O)CC[C@H](O)[C@@](C)(C(=O)O)[C@H]1[C@@H]3C(=O)O [GA13]
induction of CIGR1 and CIGR2 gene expression by gibberellin species [1]: only active type gibberellins induced the expression of both genes

C=C1C[C@]23C[C@@]1(O)CC[C@H]2[C@]1(C(=O)O)CCC[C@@](C)(C(=O)O)[C@H]1[C@@H]3C(=O)O [GA17]
induction of CIGR1 and CIGR2 gene expression by gibberellin species [1]: only active type gibberellins induced the expression of both genes

COC(=O)[C@@]1(O)C[C@H]2O[C@]1(C)n1c3ccccc3c3c4c(c5c6ccccc6n2c5c31)C(=O)NC4 [K-252-A]
inhibition of induction of both genes by chitin heptamer [4]: almost completely inhibited | inhibition of induction of expression of elicitor-responsive genes [5]: strongly inhibited | inhibition of gibberellin's induction of α-amylase ([6]; listed as K252a): hardly inhibited induction | inhibition of induction of both genes by GA3 [7]: almost completely inhibited

O=C(O)c1cc(N(Cc2ccccc2O)Cc2cc(O)ccc2O)ccc1O [Lavendustin A]
inhibition of induction of both genes by chitin heptamer [4]: hardly inhibited | inhibition of induction of both genes by GA3 [7]: inhibited induction by GA3 almost completely

CC(=O)N[C@H]1[C@H](O[C@@H]([C@H](O)[C@H](C=O)NC(C)=O)[C@H](O)CO)O[C@H](CO)[C@@H](O[C@@H]2O[C@H](CO)[C@@H](O[C@@H]3O[C@H](CO)[C@@H](O[C@@H]4O[C@H](CO)[C@@H](O[C@@H]5O[C@H](CO)[C@@H](O[C@@H]6O[C@H](CO)[C@@H](O)[C@H](O)[C@H]6NC(C)=O)[C@H](O)[C@H]5NC(C)=O)[C@H](O)[C@H]4NC(C)=O)[C@H](O)[C@H]3NC(C)=O)[C@H](O)[C@H]2NC(C)=O)[C@@H]1O [chitin heptamers, N-acetylchitoheptaose]
response of both genes to chitin oligomers and chitosan oligomers ([8]; chitin monomers to heptamers, tetramer and heptamer chitosan oligomers): strongest responses | time up to which expression continued to increase ([8]; time-course after chitin heptamer treatment): up to 90 minutes | increase in mRNA amount of both genes after elicitor treatment ([8]; time-course in cultured rice cells): Significant increases in mRNA amount were observed in both genes five minutes after treatment

C=C1[C@@H](O)[C@@H]2O[C@]3(CC[C@H](/C=C/[C@@H](C)[C@@H]4CC(C)=C[C@@]5(O[C@H](C[C@@](C)(O)C(=O)O)CC[C@H]5O)O4)O3)CC[C@H]2O[C@@H]1[C@@H](O)C[C@H](C)[C@H]1O[C@@]2(CCCCO2)CC[C@H]1C [okadaic acid]
inhibition of induction of both genes by chitin heptamer [4]: hardly inhibited | inhibition of gibberellin's induction of α-amylase [6]: specifically inhibited; also recorded: inhibited by okadaic acid | inhibition of induction of both genes by GA3 [7]: inhibited almost completely
